Measurements reported in patent publication US10398689B2, “Benzopiperidine derivative, preparation method thereof and medical use thereof” (Jiangsu Hengrui Medicine Co., Ltd., priority 2015, dated 2019).

Legend:
ER (estrogen receptor) = target: T1, ER (estrogen receptor) (Homo sapiens, UniProt P03372); experiment: Inhibition of the binding of estrogen (E) to estrogen receptor (ER), MCF-7/ERE-luciferase reporter cells; format: cell-based; conditions: MCF-7/ERE-luciferase cells, 0.1 nM estradiol, 24 hours, chemiluminescence; read-out: IC50 value of inhibition effect on the binding of E to ER
T1 construct: MCF-7/ERE-luciferase monoclonal cells were selected by transfection of MCF-7; host or cells: MCF-7/ERE-luciferase (only the ERE-luciferase reporter was transfected)
T1 sequence (P03372 1-595): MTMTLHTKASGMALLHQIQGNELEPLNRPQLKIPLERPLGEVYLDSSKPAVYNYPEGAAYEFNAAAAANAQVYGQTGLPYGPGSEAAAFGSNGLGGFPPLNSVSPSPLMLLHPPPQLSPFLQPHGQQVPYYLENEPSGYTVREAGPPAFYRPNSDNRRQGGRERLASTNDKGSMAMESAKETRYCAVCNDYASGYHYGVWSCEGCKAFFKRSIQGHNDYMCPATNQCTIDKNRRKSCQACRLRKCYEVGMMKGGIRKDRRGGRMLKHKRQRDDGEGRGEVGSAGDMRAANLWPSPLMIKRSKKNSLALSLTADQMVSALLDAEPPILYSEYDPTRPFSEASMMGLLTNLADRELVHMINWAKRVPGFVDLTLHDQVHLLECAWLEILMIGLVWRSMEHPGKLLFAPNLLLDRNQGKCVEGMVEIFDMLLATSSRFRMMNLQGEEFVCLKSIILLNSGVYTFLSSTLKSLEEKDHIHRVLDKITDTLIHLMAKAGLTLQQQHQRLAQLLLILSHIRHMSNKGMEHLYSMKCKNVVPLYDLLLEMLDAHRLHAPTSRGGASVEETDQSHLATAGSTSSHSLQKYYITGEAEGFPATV
Method: The compounds of the present invention have an inhibition effect on the binding of E (estrogen) to ER (estrogen receptor), thereby blocking the binding of a complex of E and ER complex to ERE (estrogen responsive element), and subsequently blocking the expression of downstream luciferase protein.
The inhibition effect of the compounds on the binding of E to ER in vitro was tested by the following method.
The object of this experiment was to determine the inhibition effect of the compounds on the binding of E to ER, and the in vitro activity of the compounds was evaluated according to the IC50 values.
ERE was cloned into the upstream of the luciferase gene, and MCF-7/ERE-luciferase monoclonal cells were selected by transfection of MCF-7 (Cell Bank of Chinese Academy of Sciences typical culture preservation Committee, TCHu74). MCF-7/ERE-luciferase cells were inoculated into the MEM medium (hyclone, SH30024.01B) containing 10% charcoal stripped FBS (Moregate, FBSF), 1% sodium pyruvate (Sigma, S8636), 1% nonessential amino acids (Sigma, M7145) and 500 μg/ml G418 in a 96-well plates with a density of 30,000 cells/well, and the cells were incubated under the conditions of 37° C., and 5% CO2. The drug was prepared as a 20 mM stock solution that was later diluted with 100% DMSO in 10 fold concentration gradient, and then diluted 20-fold with the medium DMEM. After incubation for 24 hours, the medium was removed, then 0.1 nM estradiol (Sigma, E2758) and 10 μl of the drug diluted with the medium were added to each well, and the control group was added with DMSO. The plate was gently shaken and incubated in a incubator at 37° C., 5% CO2. After 24 hours, the cell culture medium was discarded, Then, 50 μl of the prepared luciferase substrate (Promega, E6110) was added to each well, and the plate was placed in the dark at room temperature for 10-15 minutes, then the chemiluminescence signal value was determined.
The inhibition effect of the compounds of the present invention on the binding of E to ER was tested by the experiment described above. The values of the chemiluminescence signal vs the logarithmic concentrations of the compounds were plotted using Graphpad Prism, and the measured IC50 values are shown in Table 1.

MCF7 cells = experiment: Inhibition of the proliferation of MCF7 cells (Cell Titer-Glo); format: cell-based; conditions: Homo sapiens, MCF-7 cells, 72 hours, read-out: IC50 value of inhibition effect on the proliferation of MCF7 cells
Method: The object of this experiment was to determine the inhibition effect of the compounds on the proliferation activity of MCF7 cells, and the in vitro activity of the compounds was evaluated according to the IC50 values.
MCF-7 cells (Cell Bank of Chinese Academy of Sciences typical culture preservation Committee, TChu 74) were inoculated into the MEM medium (Hyclone, SH30024.01B) containing 10% FBS (Gibco, 10099-141), 1% sodium pyruvate (Sigma, S8636), and 1% nonessential amino acids (Sigma, M7145) in a 96-well plate with a density of 40,000 cells/well, and the cells were incubated under the conditions of 37° C., and 5% CO2. The compound was prepared as a 20 mM stock solution that was later diluted to 1000× final concentration with 100% DMSO, and then diluted with 20-fold medium containing 2% FBS. After incubation for 24 hours, the medium was removed and 90 μl of the medium containing 2% FBS and 10 μl of the drug were added to each well, 10 […] of DMSO was added to the control group, and the blank group contained only 100 μl medium containing 2% FBS. The plate was gently shaken and incubated in a incubator at 37° C., 5% CO2. After 72 hours later, 50 μl of mixed Cell Titer-Glo (Promega, G7571) was added to each well. The plate was shaken until the ingredients were mixed uniformly, and placed at room temperature for 10 minutes, then the chemiluminescence signal value was determined. The inhibition effect of the compound AZD9496 at 100 nM on the proliferation of MCF-7 cells was set to 100%, the maximum inhibition rate of other compounds=(chemiluminescence signal valuenegative control−chemiluminescence signal valuecompound 100 nm)/(chemiluminescence signal valuenegative control−chemiluminescence signal valueAZD9496 100 nm)×100%, and the negative control was a well with 0.5% DMSO.
The values of the chemiluminescence signals vs the logarithmic concentrations of the compounds were plotted using Graghpad Prism to obtain the IC50 values.

[1] = Pharmacokinetics assay in BALB/C nude mice after intragastrical administration; format: in vivo; conditions: female, mouse, po, 3 mg/kg, plasma
Method: BALB/C nude mice were used as test animals. The drug concentration in plasma at different time points was determined by LC/MS/MS after intragastrical administration of the compounds of Examples 1, 7, 8, 10, 11, 14, 16, 39 and 42 to BALB/C nude mice. The pharmacokinetic behavior of the compounds of the compounds of the present invention was studied and evaluated in BALB/C nude mice.
Eighty-one (81) female BALB/C nude mice, were equally divided into 9 groups, which were purchased from SINO-BRITSH SIPPR/BK LAB. ANIMAL LTD., CO, with Certificate No.: SOCK (Shanghai) 2008-0016.
The appropriate amount of each test compound was weighed, and successively added with 9% PEG400+0.5% tween 80+0.5% PVP+90% aqueous solution of 0.5% CMC.
After an overnight fasting, 81 female BALB/C nude mice were equally divided into 9 groups; and administered the test compounds intragastrically at an administration volume of 0.2 mL/10 g.
81 female Balb/C nude mice were administered the test compounds intragastrically after an overnight fasting. Blood (0.1 mL) was taken (3 animals at each time point) at 0.5, 1.0, 2.0, 4.0, 6.0, 8.0, 11.0, and 24.0 h after administration. The samples were stored in heparinized test tubes, and centrifuged for 10 minutes at 3,500 rpm to separate the blood plasma. The plasma samples were stored at −20° C.
The concentration of the prototype drug in the plasma and in the solution to be administered was determined by liquid chromatography tandem mass spectrometry (LC/MS MS).

| Compound | IC50 (ER (estrogen receptor)) [nM] | IC50 (MCF7 cells) [nM] | also measured |
| --- | --- | --- | --- |
| CCn1cc(-c2ccc3c(c2)CC(C)N(c2ccc(C4CC4)cc2)C3c2c(F)cc(/C=C/C(=O)O)cc2F)cn1 [Example 30, (E)-3-(4-((1S,3R/1R,3S)-2-(4-Cyclopropylphenyl)-6-(1-ethyl-1H-pyrazol-4-yl)-3-methyl-1,2,3,4-tetrahydroisoquinolin-1-yl)-3,5-difluorophenyl)acrylic acid] | 0.34 | 2.7 |  |
| CCc1ccc(N2C(C)Cc3cc(-c4cnn(CC)c4)ccc3C2c2ccc(/C=C/C(=O)O)cc2)c(Cl)c1 [Example 23, (E)-3-(4-((1R,3R/1S,3S)-2-(2-Chloro-4-ethylphenyl)-6-(1-ethyl-1H-pyrazol-4-yl)-3-methyl-1,2,3,4-tetrahydroisoquinolin-1-yl)phenyl)acrylic acid] | 0.85 | 0.81 |  |
| CC(C)c1ccc(N2[C@H](c3c(F)cc(/C=C/C(=O)O)cc3F)c3ccc(-c4cnn(C)c4)cc3C[C@H]2C)cc1 [Example 39, (E)-3-(3,5-Difluoro-4-((1S,3R)-2-(4-isopropylphenyl)-3-methyl-6-(1-methyl-1H-pyrazol-4-yl)-1,2,3,4-tetrahydroisoquinolin-1-yl)phenyl)acrylic acid] | 0.17 | 0.42 | Vd/F ([1]; read-out: Apparent Distribution Volume Vz/F): 1.53 L/kg; AUC ([1]; read-out: Area Under Curve AUC): 10200 ng·h/mL; CL/F ([1]; read-out: Clearance CL/F): 4.92 mL/min/kg; half-life ([1]; read-out: Half-Life t1/2 (converted)): 3.6 h; MRT ([1]; read-out: Mean Residence Time MRT): 7.02 h; Cmax ([1]; read-out: Plasma Conc. Cmax): 1760 ng/mL |
| CCn1cc(-c2ccc3c(c2)CC(C)N(c2ccc(C4CC4)cc2Cl)C3c2ccc(/C=C/C(=O)O)cc2)cn1 [Example 24, (E)-3-(4-((1R,3R/1S,3S)-2-(2-Chloro-4-cyclopropylphenyl)-6-(1-ethyl-1H-pyrazol-4-yl)-3-methyl-1,2,3,4-tetrahydroisoquinolin-1-yl)phenyl)acrylic acid] | 1.81 | 0.9 |  |
| CC(C)c1ccc(N2C(C)Cc3cc(-c4cnn(C(F)F)c4)ccc3C2c2ccc(/C=C/C(=O)O)cc2)cc1 (centres unmarked) [Example 49] | 3.46 | 1.04 |  |
| CCc1ccc(N2C(C)Cc3cc(-c4cnn(CC)c4)ccc3C2c2ccc(/C=C/C(=O)O)cc2)cc1 [Example 17, (E)-3-(4-((1R,3R/1S,3S)-6-(1-Ethyl-1H-pyrazol-4-yl)-2-(4-ethylphenyl)-3-methyl-1,2,3,4-tetrahydroisoquinolin-1-yl)phenyl)acrylic acid] | 3.32 | 0.65 |  |
| Cc1ccc(N2C(C)Cc3cc(-c4cnn(C)c4)ccc3C2c2ccc(/C=C/C(=O)O)cc2)c(C)c1 [Example 37, (E)-3-(4-((1R,3R/1S,3S)-2-(2,4-Dimethylphenyl)-3-methyl-6-(1-methyl-1H-pyrazol-4-yl)-1,2,3,4-tetrahydroisoquinolin-1-yl)phenyl)acrylic acid] | 0.84 | 1.74 |  |
| CC(C)c1ccc(N2C(C)Cc3cc(-c4cn[nH]c4)ccc3C2c2ccc(/C=C/C(=O)O)cc2)cc1 [Example 48, (E)-3-(4-((1R,3R/1S,3S)-2-(4-Isopropylphenyl)-3-methyl-6-(1H-pyrazol-4-yl)-1,2,3,4-tetrahydroisoquinolin-1-yl)phenyl)acrylic acid] | 0.71 | 0.59 |  |
| CCn1cc(-c2ccc3c(c2)C[C@@H](C)N(c2ccc(C4CC4)cc2C)[C@@H]3c2ccc(/C=C/C(=O)O)cc2)cn1 [Example 28, (E)-3-(4-((1R,3R)-2-(4-Cyclopropyl-2-methylphenyl)-6-(1-ethyl-1H-pyrazol-4-yl)-3-methyl-1,2,3,4-tetrahydroisoquinolin-1-yl)phenyl)acrylic acid] | 0.42 | 0.31 |  |
| CC1Cc2cc(-c3cn[nH]c3)ccc2C(c2ccc(/C=C/C(=O)O)cc2)N1c1ccc(C2CC2)cc1 [Example 36, (E)-3-(4-((1R,3R/1S,3S)-2-(4-cyclopropylphenyl)-3-methyl-6-(1H-pyrazol-4-yl)-1,2,3,4-tetrahydroisoquinolin-1-yl)phenyl)acrylic acid] | 5.63 | 2.8 |  |
| CCn1cc(-c2ccc3c(c2)C[C@@H](C)N(c2ccc(C4CC4)cc2)[C@@H]3c2c(F)cc(/C=C/C(=O)O)cc2F)cn1 [Example 32] | 0.74 | 0.42 |  |
| CC1Cc2cc(-c3cnn(C)c3)ccc2C(c2ccc(/C=C/C(=O)O)cc2)N1c1ccc(CC2CC2)cc1 [Example 47, (E)-3-(4-((1R,3R/1S,3S)-2-(4-(Cyclopropylmethyl)phenyl)-3-methyl-6-(1-methyl-1H-pyrazol-4-yl)-1,2,3,4-tetrahydroisoquinolin-1-yl)phenyl)acrylic acid] | 5.39 | 4.9 |  |
| CCn1cc(-c2ccc3c(c2)CC(C)N(c2ccc(C4CC4)cc2F)C3c2ccc(/C=C/C(=O)O)cc2)cn1 [Example 22, (E)-3-(4-((1R,3R/1S,3S)-2-(4-Cyclopropyl-2-fluorophenyl)-6-(1-ethyl-1H-pyrazol-4-yl)-3-methyl-1,2,3,4-tetrahydroisoquinolin-1-yl)phenyl)acrylic acid] | 1 | 0.57 |  |
